In brackets after ≈: the same amount, converted by molar mass.
What was measured:
[1] = biological target: T1, M2 (muscarinic subtype 2 acetylcholine receptor) (Homo sapiens, UniProt P08172); test: radioligand binding inhibition screen; settings: read-out: % inhibition or stimulation^a
T1 construct: gene CHRM2; human recombinant receptor
T1 sequence (P08172 1-466): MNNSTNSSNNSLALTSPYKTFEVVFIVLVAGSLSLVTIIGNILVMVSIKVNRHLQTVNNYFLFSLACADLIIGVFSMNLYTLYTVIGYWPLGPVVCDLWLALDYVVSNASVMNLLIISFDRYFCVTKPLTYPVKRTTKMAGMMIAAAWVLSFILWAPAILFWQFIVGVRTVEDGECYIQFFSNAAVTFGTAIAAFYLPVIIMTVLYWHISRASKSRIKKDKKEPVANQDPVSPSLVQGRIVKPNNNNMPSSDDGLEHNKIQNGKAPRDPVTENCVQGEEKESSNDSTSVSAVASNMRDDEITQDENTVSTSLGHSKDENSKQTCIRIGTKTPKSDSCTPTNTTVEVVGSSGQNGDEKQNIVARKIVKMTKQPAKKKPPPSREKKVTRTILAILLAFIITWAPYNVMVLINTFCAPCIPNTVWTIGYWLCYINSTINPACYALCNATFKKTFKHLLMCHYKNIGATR
Description: radioligand binding inhibition screen on M2 (muscarinic subtype 2 acetylcholine receptor)

[2] = biological target: T2, M3 (muscarinic receptor M3) (Homo sapiens, UniProt P20309); test: radioligand binding inhibition; settings: […] test; read-out: EC50 or IC50
T2 construct: gene CHRM3; human recombinant receptor
T2 sequence (P20309 whole entry): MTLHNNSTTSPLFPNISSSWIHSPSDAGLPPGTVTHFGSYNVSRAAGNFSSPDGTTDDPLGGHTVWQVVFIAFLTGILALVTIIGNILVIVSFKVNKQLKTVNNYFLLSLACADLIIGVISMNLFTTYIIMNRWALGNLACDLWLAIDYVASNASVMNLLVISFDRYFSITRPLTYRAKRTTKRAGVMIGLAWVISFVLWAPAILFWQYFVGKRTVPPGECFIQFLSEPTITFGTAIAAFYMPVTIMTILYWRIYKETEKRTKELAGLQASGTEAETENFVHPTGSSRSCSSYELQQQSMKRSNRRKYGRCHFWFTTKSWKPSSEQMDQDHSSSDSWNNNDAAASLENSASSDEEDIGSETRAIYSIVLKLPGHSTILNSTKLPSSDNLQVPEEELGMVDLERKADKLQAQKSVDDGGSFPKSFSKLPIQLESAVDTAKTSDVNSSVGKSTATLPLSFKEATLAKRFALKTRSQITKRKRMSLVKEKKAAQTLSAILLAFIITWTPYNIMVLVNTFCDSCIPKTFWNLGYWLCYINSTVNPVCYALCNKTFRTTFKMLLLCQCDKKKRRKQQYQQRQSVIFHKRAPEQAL
Description: radioligand binding inhibition on M3 (muscarinic receptor M3)

[3] = biological target: T3, hERG (human ether-a-go-go-related gene) channel (Homo sapiens, UniProt Q12809); test: hERG tail current electrophysiology, HEK293 cells; format: cell-based; settings: room temperature; […] tested; corrected for vehicle rundown; point-to-point fit
T3 construct: gene KCNH2; hERG cDNA stably transfected in HEK293 cells; homotetramer
T3 sequence (Q12809 whole entry): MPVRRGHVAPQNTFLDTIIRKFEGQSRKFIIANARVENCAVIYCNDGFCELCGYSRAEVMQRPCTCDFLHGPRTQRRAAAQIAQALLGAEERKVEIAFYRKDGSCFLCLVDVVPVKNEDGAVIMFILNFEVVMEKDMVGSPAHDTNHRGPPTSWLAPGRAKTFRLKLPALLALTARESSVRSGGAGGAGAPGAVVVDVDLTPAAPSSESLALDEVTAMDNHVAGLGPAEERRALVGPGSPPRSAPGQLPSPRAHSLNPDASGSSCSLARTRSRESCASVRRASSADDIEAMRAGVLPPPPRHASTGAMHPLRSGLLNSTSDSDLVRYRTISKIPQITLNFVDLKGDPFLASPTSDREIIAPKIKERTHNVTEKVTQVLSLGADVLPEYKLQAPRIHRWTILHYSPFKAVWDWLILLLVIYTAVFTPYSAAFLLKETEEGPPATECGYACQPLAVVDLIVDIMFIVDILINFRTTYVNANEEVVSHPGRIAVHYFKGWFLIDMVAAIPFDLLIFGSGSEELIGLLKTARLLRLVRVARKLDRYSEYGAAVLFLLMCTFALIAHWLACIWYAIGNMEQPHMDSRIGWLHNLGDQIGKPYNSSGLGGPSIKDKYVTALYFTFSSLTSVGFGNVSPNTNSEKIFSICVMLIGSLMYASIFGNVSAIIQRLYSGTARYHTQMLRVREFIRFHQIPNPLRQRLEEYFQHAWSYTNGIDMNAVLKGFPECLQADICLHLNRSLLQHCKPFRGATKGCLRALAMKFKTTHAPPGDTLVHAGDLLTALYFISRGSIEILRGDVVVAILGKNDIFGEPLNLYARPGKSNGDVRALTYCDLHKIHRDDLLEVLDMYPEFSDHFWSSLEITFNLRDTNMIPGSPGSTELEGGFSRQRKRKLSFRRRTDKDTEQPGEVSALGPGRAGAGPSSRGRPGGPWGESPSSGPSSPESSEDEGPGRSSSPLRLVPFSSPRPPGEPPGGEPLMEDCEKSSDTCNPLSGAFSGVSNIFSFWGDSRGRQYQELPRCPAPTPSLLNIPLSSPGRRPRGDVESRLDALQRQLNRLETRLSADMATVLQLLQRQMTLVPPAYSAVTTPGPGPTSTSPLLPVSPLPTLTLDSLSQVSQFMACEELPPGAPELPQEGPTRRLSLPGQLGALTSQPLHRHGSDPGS

[4] = biological target: T1, M2 (muscarinic subtype 2 acetylcholine receptor); test: radioligand binding inhibition; settings: range of […] separate tests ([…] and […])
[5] = biological target: T1, M2 (muscarinic subtype 2 acetylcholine receptor); test: functional M2 agonist assay; format: cell-based; settings: agonist mode; […] separate tests; read-out: EC50 or IC50
Description: functional M2 agonist assay on M2 (muscarinic subtype 2 acetylcholine receptor)

[6] = biological target: T1, M2 (muscarinic subtype 2 acetylcholine receptor); test: functional M2 antagonist assay; format: cell-based; settings: antagonist mode; range of […] separate tests ([…])
M4 = biological target: T4, M4 (Homo sapiens, UniProt P08173); test: radioligand binding inhibition; settings: […] separate tests; read-out: EC50 or IC50
T4 construct: gene CHRM4; human recombinant receptor
T4 sequence (P08173 1-479): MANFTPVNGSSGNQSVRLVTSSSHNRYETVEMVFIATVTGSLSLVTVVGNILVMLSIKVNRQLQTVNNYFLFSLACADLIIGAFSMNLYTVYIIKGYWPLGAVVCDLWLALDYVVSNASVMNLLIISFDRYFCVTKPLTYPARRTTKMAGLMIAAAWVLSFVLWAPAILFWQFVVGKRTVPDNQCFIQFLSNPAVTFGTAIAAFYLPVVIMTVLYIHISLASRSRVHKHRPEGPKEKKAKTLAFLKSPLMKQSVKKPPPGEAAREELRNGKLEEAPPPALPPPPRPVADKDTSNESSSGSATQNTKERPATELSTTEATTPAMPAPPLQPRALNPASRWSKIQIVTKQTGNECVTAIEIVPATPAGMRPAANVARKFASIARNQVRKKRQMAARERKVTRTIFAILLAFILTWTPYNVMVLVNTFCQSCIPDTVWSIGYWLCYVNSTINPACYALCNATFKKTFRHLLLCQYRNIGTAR
Description: radioligand binding inhibition on M4

M5 = biological target: T5, M5 (Homo sapiens, UniProt P08912); test: radioligand binding inhibition; settings: […] separate tests; read-out: EC50 or IC50
T5 construct: gene CHRM5; human recombinant receptor
T5 sequence (P08912 1-532): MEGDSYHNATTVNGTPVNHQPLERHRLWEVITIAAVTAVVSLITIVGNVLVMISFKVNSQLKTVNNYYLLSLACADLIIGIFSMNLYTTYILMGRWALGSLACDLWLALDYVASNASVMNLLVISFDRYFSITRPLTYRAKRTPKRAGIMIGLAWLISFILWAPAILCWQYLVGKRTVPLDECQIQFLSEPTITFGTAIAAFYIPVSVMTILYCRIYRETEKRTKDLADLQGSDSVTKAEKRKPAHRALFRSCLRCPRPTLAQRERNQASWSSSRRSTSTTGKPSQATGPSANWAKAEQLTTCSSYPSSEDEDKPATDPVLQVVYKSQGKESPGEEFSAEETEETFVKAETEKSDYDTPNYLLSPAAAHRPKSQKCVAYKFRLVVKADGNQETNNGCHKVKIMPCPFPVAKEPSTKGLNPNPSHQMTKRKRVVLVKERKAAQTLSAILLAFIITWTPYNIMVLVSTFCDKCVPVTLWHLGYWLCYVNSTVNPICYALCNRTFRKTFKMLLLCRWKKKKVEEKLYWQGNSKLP
Description: radioligand binding inhibition on M5

M1 = biological target: T6, M1 (Homo sapiens, UniProt P11229); test: radioligand binding inhibition; settings: […] test; read-out: EC50 or IC50
T6 construct: gene CHRM1; human recombinant receptor
T6 sequence (P11229 1-460): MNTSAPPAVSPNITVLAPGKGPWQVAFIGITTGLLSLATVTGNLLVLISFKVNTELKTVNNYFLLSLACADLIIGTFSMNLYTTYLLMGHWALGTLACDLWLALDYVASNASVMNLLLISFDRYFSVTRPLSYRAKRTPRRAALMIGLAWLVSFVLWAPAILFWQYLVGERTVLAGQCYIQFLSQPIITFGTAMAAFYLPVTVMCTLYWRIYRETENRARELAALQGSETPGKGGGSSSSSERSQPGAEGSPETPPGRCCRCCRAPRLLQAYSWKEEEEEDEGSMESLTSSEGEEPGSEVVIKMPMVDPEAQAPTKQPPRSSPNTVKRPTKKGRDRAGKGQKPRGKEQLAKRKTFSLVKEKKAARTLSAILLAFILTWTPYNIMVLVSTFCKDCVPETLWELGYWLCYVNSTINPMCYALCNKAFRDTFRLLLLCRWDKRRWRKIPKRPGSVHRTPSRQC
Description: radioligand binding inhibition on M1

## CN(C)c1cc(CNCC(C)(C)C)c(O)c2c1C[C@H]1C[C@H]3[C@H](N(C)C)C(=O)C(C(N)=O)=C(O)[C@@]3(O)C(=O)C1=C2O [omadacycline]
[1]
  inhibition at 10 µM: 82%
[2]
  IC50: > 30 µM
[3]
  IC25: 166 µg/mL (≈ 298 µM)
[4]
  IC50: 4.2 to 4.3 µM
[5]
  EC50: > 30 µM
[6]
  IC50: 21 to 28 µM
M4
  IC50: > 30 µM
M5
  IC50: > 30 µM
M1
  IC50: 29 µM

From paper PMC4997885, “In Vitro and In Vivo Assessments of Cardiovascular Effects with Omadacycline” (Antimicrobial Agents and Chemotherapy, 2016)
